# Results: paper PMC10895674, “First-in-Class Dual EZH2-HSP90 Inhibitor Eliciting Striking Antiglioblastoma Activity In Vitro and In Vivo” (Journal of Medicinal Chemistry, 2024)
# pIC50: −log10 of the molar value.
# How the values were obtained:
# Pt3R cells [1] = experiment: Itraq-based proteomics analysis of global protein expression; format: cell-based, human; conditions: 2 μM
# From the text: Having identified the desired chemical probe 7, we assessed global protein expression using Itraq-based proteomics analysis to estimate whether 7 suppresses HSP90 (Pt3R cell lines). […] This observation is aligned with the results attained with geldanamycin treatment (a well-known HSP90 inhibitor)[49],[50] and confirms the HSP90-suppressive activity of compound 7 in GBM cells.
# (§1) RNA was isolated using the RNA extracting kit (Zymo Research, Irvine, CA) and subjected to RNA-seq serviced by BIOTOOLS Co., Ltd. (New Taipei City, Taiwan). Cell pellets were collected and subjected to proteomic analysis serviced by BIOTOOLS Co., Ltd. The comparison in gene expression between Pt3 and Pt3R was performed using RNA seq and described previously.[60]
# [2] = tested on: blood–brain barrier (BBB); experiment: BBB permeability (chamber coated with endothelial cells and astrocytes, MTT of Pt#3-R in lower chamber); format: in vitro ADME; conditions: upper chamber, 72 h; 0, 1, 5, 10 (mM printed); viability of Pt#3-R in lower chamber by MTT
# Method: Fig. S1 Compound 7 was added in the upper chamber coated with endothelial cells and astrocytes, and incubated
# for 72 h. Subsequently, the viability of Pt#3-R in the lower chamber was analyzed by the MTT assay. As shown […]
# Pt#3-R-induced tumor = experiment: In vivo anti-GBM efficacy, Pt3R xenograft; conditions: 20 mg/kg, intraperitoneally twice per week, NOD.CB17-Prkdc scid mice
# Method: In vivo anti-GBM efficacy of compound 7 was also evaluated in this study. For the in vivo study, experimental NOD.CB17-Prkdc^scid/NCrCrl mice (8-week-old) were used and Pt3R cells (1 × 10^6) in 50 μL Dulbecco’s modified Eagle’s medium (DMEM) were injected into the back of mice. After 10 days, the tumor was detectable. […] In a nutshell, the outcome of the in vivo study ascertains that the remarkable in vitro anti-GBM activity profile of dual inhibitor 7 was translated to the in vivo potential.
# Animal experiments were approved by the institutional animal care and use committee of Taipei Medical University (IACUC: LAC2022-0288). Male NOD.CB17-Prkdc^scid/NCrCrl mice (8-week-old) were purchased from BioLASCO Taiwan Co., Ltd. (Taipei, Taiwan). Pt3R cells (1 × 10^6) in 50 μL of DMEM were injected into the back of mice. Experimental mice were grouped as follows (Figure 11): DMSO (n = 5), C7–10 mg/kg (n = 4), C7–20 mg/kg (n = 6), TAZ-10 mg/kg (n = 6), TAZ-20 mg/kg (n = 8), STA-5+TAZ-5 mg/kg (n = 7), STA-10+TAZ-10 mg/kg (n = 7) and STA-15+TAZ-15 mg/kg (n = 7). After 10 days, the tumor was touchable. Mice were injected intraperitoneally with DMSO (the control group) or compounds twice per week.
# TMZ-resistant Pt3R cells = experiment: RNA-seq gene expression profile (and cell morphology) after 48 h; format: cell-based, human
# Method: To gain insights regarding the ability of dual inhibitor 7 to suppress the viability of TMZ-resistant GBM cells, RNA-seq to analyze gene expression profiles was performed.
# Figure 7 Effect of compound 7 on gene expression profile in TMZ-resistant Pt3R cells. […] (B) GSEA functionally grouped genes. (C) Genes involved in apoptosis/necrosis and M phase/Kinetochore/Spindle were clustered in the heatmap.
# as §1
# EZH2 = EZH2 (Homo sapiens, UniProt Q15910); experiment: EZH2 inhibition assay (Reaction Biology Corp.); format: biochemical; conditions: 10-dose IC50 mode, 3-fold serial dilution starting at 10 μM, single experiment
# Method: The EZH2 inhibitory ability of the synthesized adduct was assessed by Reaction Biology Corporation Malvern, PA. (http://www.reactionbiology.com).
# Pt3R cells [3] = experiment: Cell cycle analysis (PI staining, flow cytometry); format: cell-based, human; conditions: 24 h treatment (Figure 8E)
# Method: Figure 8 Compound 7 suppresses gene expression of CENP family. (A) Compound 7-suppressed CENP family. (B) Gene expression of CENP family in Pt3 and TMZ-resistant Pt3R cells. (C) Prognostic value was analyzed using the GlioVis Web site. (D) Western blotting was used to confirm that compound 7 decreased CENPs expression. (E) Cell cycle analysis. After treatment for 24 h, cells were stained with propidium iodide (PI) and subjected to flow cytometry analysis.
# EZH2, sequence (Q15910 whole entry): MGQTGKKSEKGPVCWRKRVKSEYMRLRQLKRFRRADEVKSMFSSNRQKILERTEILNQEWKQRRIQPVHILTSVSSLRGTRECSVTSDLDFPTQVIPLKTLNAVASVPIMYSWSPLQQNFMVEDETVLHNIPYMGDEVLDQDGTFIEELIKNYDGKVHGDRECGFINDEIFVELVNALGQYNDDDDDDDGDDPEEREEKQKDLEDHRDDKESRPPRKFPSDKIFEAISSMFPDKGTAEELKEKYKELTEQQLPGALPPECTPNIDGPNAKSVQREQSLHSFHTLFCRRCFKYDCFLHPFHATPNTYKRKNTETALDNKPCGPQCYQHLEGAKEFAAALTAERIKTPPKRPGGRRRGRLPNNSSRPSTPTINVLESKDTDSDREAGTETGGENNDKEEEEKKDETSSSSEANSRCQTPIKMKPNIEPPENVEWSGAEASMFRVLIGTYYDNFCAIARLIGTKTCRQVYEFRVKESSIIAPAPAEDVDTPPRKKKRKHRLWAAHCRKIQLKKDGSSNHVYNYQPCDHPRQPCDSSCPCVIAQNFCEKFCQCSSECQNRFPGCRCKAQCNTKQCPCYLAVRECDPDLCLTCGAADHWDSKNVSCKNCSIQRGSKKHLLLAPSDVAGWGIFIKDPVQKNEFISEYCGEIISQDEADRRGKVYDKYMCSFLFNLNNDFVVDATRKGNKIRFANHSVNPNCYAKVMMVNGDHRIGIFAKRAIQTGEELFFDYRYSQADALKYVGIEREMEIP
# EZH2, sequence (O75530 whole entry partner): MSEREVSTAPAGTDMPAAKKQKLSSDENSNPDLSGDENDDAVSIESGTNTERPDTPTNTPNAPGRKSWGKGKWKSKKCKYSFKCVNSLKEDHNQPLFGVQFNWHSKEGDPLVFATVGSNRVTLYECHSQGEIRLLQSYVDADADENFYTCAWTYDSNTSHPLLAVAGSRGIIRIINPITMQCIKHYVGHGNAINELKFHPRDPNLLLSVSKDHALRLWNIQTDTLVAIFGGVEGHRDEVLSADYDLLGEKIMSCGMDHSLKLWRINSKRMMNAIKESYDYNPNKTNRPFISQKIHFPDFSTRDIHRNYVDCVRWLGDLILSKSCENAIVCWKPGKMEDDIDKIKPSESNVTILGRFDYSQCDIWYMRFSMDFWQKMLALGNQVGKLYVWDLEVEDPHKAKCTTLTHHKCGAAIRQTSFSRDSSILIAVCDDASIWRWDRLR
# EZH2, sequence (Q15022 whole entry partner): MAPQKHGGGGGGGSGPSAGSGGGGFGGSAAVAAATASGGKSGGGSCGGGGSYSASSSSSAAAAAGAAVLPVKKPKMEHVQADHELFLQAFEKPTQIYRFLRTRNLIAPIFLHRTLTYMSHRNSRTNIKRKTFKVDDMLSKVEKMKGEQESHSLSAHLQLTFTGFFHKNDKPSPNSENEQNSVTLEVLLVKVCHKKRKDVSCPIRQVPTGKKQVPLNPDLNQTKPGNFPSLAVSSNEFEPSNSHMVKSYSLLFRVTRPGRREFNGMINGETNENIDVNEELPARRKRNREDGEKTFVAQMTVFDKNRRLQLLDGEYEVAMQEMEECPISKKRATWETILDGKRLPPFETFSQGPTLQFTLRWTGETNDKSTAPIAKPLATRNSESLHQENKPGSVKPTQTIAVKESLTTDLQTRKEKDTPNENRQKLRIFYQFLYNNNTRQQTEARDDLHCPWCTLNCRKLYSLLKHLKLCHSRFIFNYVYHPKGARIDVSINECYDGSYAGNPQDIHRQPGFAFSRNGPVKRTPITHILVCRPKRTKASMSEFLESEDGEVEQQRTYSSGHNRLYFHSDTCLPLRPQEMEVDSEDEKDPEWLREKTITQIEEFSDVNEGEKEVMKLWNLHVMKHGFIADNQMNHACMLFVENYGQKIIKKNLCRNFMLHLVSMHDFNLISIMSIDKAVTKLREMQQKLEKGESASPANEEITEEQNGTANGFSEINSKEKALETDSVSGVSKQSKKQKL
# EZH2, sequence (Q09028 whole entry partner): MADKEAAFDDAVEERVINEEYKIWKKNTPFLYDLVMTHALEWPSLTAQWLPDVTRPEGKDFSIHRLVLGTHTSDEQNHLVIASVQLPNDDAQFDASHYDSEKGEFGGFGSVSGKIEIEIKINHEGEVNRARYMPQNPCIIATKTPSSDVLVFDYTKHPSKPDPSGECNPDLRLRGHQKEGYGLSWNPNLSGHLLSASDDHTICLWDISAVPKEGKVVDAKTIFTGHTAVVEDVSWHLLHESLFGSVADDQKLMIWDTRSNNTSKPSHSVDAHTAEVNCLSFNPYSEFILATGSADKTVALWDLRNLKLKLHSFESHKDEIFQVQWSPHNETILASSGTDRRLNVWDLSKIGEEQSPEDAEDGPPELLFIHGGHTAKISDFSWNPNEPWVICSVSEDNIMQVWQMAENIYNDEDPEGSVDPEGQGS
# EZH2, sequence (Q6ZN18 whole entry partner): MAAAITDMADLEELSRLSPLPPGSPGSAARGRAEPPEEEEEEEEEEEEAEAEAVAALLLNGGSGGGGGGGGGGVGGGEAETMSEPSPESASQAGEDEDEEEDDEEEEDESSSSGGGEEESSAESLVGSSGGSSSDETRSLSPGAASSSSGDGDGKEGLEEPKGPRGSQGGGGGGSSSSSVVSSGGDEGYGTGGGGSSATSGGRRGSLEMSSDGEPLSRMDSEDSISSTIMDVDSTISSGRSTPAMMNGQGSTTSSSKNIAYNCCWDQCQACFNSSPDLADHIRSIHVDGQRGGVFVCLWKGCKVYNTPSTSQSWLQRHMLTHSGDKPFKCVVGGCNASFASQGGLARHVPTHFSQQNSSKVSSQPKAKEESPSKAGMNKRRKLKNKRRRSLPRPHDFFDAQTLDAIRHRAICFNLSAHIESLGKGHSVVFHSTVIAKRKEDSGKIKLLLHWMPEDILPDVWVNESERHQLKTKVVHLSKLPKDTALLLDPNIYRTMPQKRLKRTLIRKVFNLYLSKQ
smiles,measurement,setting,value
"CCN(c1cc(-c2cccc(N(C)C(=O)c3cc(C(C)C)c(O)cc3O)c2)cc(C(=O)NCc2c(C)cc(C)[nH]c2=O)c1C)C1CCOCC1 [Compound 7, 3′-(2,4-Dihydroxy-5-isopropyl-N-methylbenzamido)-N-((4,6-dimethyl-2-oxo-1,2-dihydropyridin-3-yl)methyl)-5-(ethyl(tetrahydro-2H-pyran-4-yl)amino)-4-methyl-[1,1′-biphenyl]-3-carboxamide]","C7/DMSO, ANXA5 (P08758)",Pt3R cells [1]; protein decreased,0.406
same,"C7/DMSO, CORO1C (Q9ULV4)",Pt3R cells [1]; protein decreased,0.410
same,"C7/DMSO, CYB5B (O43169)",Pt3R cells [1]; protein decreased,0.568
same,"C7/DMSO, DDX6 (P26196)",Pt3R cells [1]; protein decreased,0.596
same,"C7/DMSO, DDX39A (O00148)",Pt3R cells [1]; protein decreased,0.515
same,"C7/DMSO, EIF3I (Q13347)",Pt3R cells [1]; protein decreased,0.624
same,"C7/DMSO, GNB2 (P62879)",Pt3R cells [1]; protein decreased,0.628
same,"C7/DMSO, H1–2 (P16403)",Pt3R cells [1]; protein decreased,0.334
same,"C7/DMSO, H2AZ1 (P0C0S5)",Pt3R cells [1]; protein decreased,0.603
same,"C7/DMSO, H2BC11 (P06899)",Pt3R cells [1]; protein decreased,0.423
same,"C7/DMSO, H2BC12 (O60814)",Pt3R cells [1]; protein decreased,0.419
same,"C7/DMSO, H4C1 (P62805)",Pt3R cells [1]; protein decreased,0.556
same,"C7/DMSO, HADHB (P55084)",Pt3R cells [1]; protein decreased,0.591
same,"C7/DMSO, HIST1H2AH (Q96KK5)",Pt3R cells [1]; protein decreased,0.245
same,"C7/DMSO, HIST2H3A (Q71DI3)",Pt3R cells [1]; protein decreased,0.240
same,"C7/DMSO, HMGB2 (P26583)",Pt3R cells [1]; protein decreased,0.575
same,"C7/DMSO, HMGB3 (O15347)",Pt3R cells [1]; protein decreased,0.573
same,"C7/DMSO, HNRNPA3 (P51991)",Pt3R cells [1]; protein decreased,0.377
same,"C7/DMSO, ILF3 (Q12906)",Pt3R cells [1]; protein decreased,0.645
same,"C7/DMSO, MCM3 (P25205)",Pt3R cells [1]; protein decreased,0.635
same,"C7/DMSO, MCM7 (P33993)",Pt3R cells [1]; protein decreased,0.586
same,"C7/DMSO, NASP (P49321)",Pt3R cells [1]; protein decreased,0.604
same,"C7/DMSO, NT5E (P21589)",Pt3R cells [1]; protein decreased,0.446
same,"C7/DMSO, PA2G4 (Q9UQ80)",Pt3R cells [1]; protein decreased,0.628
same,"C7/DMSO, PCBP1 (Q15365)",Pt3R cells [1]; protein decreased,0.628
same,"C7/DMSO, PTGES3 (Q15185)",Pt3R cells [1]; protein decreased,0.589
same,"C7/DMSO, RACK1 (P63244)",Pt3R cells [1]; protein decreased,0.627
same,"C7/DMSO, RPL26 (P61254)",Pt3R cells [1]; protein decreased,0.619
same,"C7/DMSO, RPL35 (P42766)",Pt3R cells [1]; protein decreased,0.629
same,"C7/DMSO, RPS6 (P62753)",Pt3R cells [1]; protein decreased,0.641
same,"C7/DMSO, RPS10 (P46783)",Pt3R cells [1]; protein decreased,0.608
same,"C7/DMSO, S100A13 (Q99584)",Pt3R cells [1]; protein decreased,0.638
same,"C7/DMSO, SERPINB6 (P35237)",Pt3R cells [1]; protein decreased,0.632
same,"C7/DMSO, SRSF7 (Q16629)",Pt3R cells [1]; protein decreased,0.605
same,"C7/DMSO, TAF15 (Q92804)",Pt3R cells [1]; protein decreased,0.609
same,"C7/DMSO, TNS3 (Q68CZ2)",Pt3R cells [1]; protein decreased,0.582
same,"C7/DMSO, TUBB4B (P68371)",Pt3R cells [1]; protein decreased,0.564
same,"C7/DMSO, TXNDC5 (Q8NBS9)",Pt3R cells [1]; protein decreased,0.635
same,"C7/DMSO, YWHAG (P61981)",Pt3R cells [1]; protein decreased,0.447
same,"C7/DMSO, ACTB (P60709)",Pt3R cells [1]; protein increased,1.657
same,"C7/DMSO, ARF3 (P61204)",Pt3R cells [1]; protein increased,1.944
same,"C7/DMSO, ATP5IF1 (Q9UII2)",Pt3R cells [1]; protein increased,1.646
same,"C7/DMSO, ATP6 V1E1 (P36543)",Pt3R cells [1]; protein increased,1.599
same,"C7/DMSO, CLIC1 (O00299)",Pt3R cells [1]; protein increased,2.598
same,"C7/DMSO, CTNNB1 (P35222)",Pt3R cells [1]; protein increased,1.550
same,"C7/DMSO, EEF1B2 (P24534)",Pt3R cells [1]; protein increased,1.792
same,"C7/DMSO, EHD1 (Q9H4M9)",Pt3R cells [1]; protein increased,1.555
same,"C7/DMSO, GIPC1 (O14908)",Pt3R cells [1]; protein increased,1.699
same,"C7/DMSO, HK1 (P19367)",Pt3R cells [1]; protein increased,1.921
same,"C7/DMSO, HSP90AA1 (P07900)",Pt3R cells [1]; protein increased,1.958
same,"C7/DMSO, HSPA1A (P0DMV8)",Pt3R cells [1]; protein increased,2.843
same,"C7/DMSO, HSPA4 (P34932)",Pt3R cells [1]; protein increased,1.561
same,"C7/DMSO, HSPA8 (P11142)",Pt3R cells [1]; protein increased,2.096
same,"C7/DMSO, HSPB1 (P04792)",Pt3R cells [1]; protein increased,1.661
same,"C7/DMSO, HSPE1 (P61604)",Pt3R cells [1]; protein increased,1.710
same,"C7/DMSO, HSPH1 (Q92598)",Pt3R cells [1]; protein increased,1.642
same,"C7/DMSO, LRPAP1 (P30533)",Pt3R cells [1]; protein increased,1.667
same,"C7/DMSO, NME1 (P15531)",Pt3R cells [1]; protein increased,3.299
same,"C7/DMSO, OCIAD2 (Q56VL3)",Pt3R cells [1]; protein increased,2.150
same,"C7/DMSO, OLA1 (Q9NTK5)",Pt3R cells [1]; protein increased,1.745
same,"C7/DMSO, P4HA2 (O15460)",Pt3R cells [1]; protein increased,1.588
same,"C7/DMSO, PSMD3 (O43242)",Pt3R cells [1]; protein increased,1.801
same,"C7/DMSO, PSMD14 (O00487)",Pt3R cells [1]; protein increased,1.579
same,"C7/DMSO, S100A10 (P60903)",Pt3R cells [1]; protein increased,1.664
same,"C7/DMSO, SERPINE1 (P05121)",Pt3R cells [1]; protein increased,4.203
same,"C7/DMSO, SERPINH1 (P50454)",Pt3R cells [1]; protein increased,2.186
same,"C7/DMSO, TWF1 (Q12792)",Pt3R cells [1]; protein increased,1.995
same,"C7/DMSO, ZYX (Q15942)",Pt3R cells [1]; protein increased,1.903
same,BBB penetration,[2],able to penetrate blood–brain barrier (BBB)
same,growth of Pt#3-R-induced tumor,Pt#3-R-induced tumor,significantly decreased the growth
same,"centromere proteins (CENPs) CENPF, CENPE, CENPA, CENPI gene expression",TMZ-resistant Pt3R cells; Pt3R (Figure 8C),decreased
same,RBBP8 and BRCA1 gene expression,TMZ-resistant Pt3R cells; Pt3R (Figure 9A),suppressed
same,"genes regulating homologous recombination (TOP2A, RAD54B, RAD21, EME1, BRIP1)",TMZ-resistant Pt3R cells; Pt3R (Figure 9H),suppressed
same,number of gene expressions decreased (RNA-seq),"TMZ-resistant Pt3R cells; Pt3R, 2 μM, 48 h",498
same,number of gene expressions increased (RNA-seq),"TMZ-resistant Pt3R cells; Pt3R, 2 μM, 48 h",297
same,cell proliferation,"TMZ-resistant Pt3R cells; Pt3R, 2 μM, 48 h (Figure 7A)",significantly inhibited cell proliferation
same,M phase/kinetochore/spindle-related gene expression,"TMZ-resistant Pt3R cells; Pt3R, 48 h",decreased
same,apoptosis/necrosis-related gene expression,"TMZ-resistant Pt3R cells; Pt3R, 48 h",increased
same,pIC50,EZH2,8.20
same,cell cycle,Pt3R cells [3],induced cell cycle arrest at the M phase
